Data taken from patent US8962523B2, “Herbicide/safener combination” (Bayer Cropscience AG, priority 2008, dated 2015).

Legend:
Assay type in all cases: in vivo
[1] = test system: Barley (Adonis); assay: Post-emergence herbicidal effect and safener effect, barley; conditions: no safener
Procedure: (§1) Seeds or rhizome pieces of mono- and dicotyledonous harmful plants and of crop plants are planted in peat pots in sandy loam, covered with earth and grown in a greenhouse under good growth conditions. Alternatively to this, harmful plants occurring in the paddy rice cultivation are cultivated in pots in which water comes to 2 cm above the soil surface. 10 to 20 days after sowing, the test plants are treated in the one to three-leaf stage. The herbicide/safener active ingredient combinations according to the invention, formulated as water-soluble powders or suspensions, and, in parallel experiments, the correspondingly formulated individual active ingredients are sprayed onto the green plant parts in various dosages using an application rate of 300 l of water/ha (converted) and, after the test plants have remained in the greenhouse under optimum growth conditions for 2-3 weeks, the effect of the preparations is scored visually in comparison with untreated controls. In the case of rice or in the case of harmful plants which occur in the rice cultivation, the active ingredients are also placed directly into the irrigation water (application analogous to the so-called granules application) or sprayed onto plants and into the irrigation water.

[2] = test system: Corn (Aventura); assay: Pre-emergence herbicidal effect and safener effect, corn; conditions: no safener
Source text: (§2) Seeds or rhizome pieces of mono- and dicotyledonous weed plants and crop plants were planted in peat pots in sandy loam and covered with earth. The herbicide/safener active ingredient combinations according to the invention, formulated as water-soluble powders or suspensions, and, in parallel experiments, the correspondingly formulated individual active ingredients were then applied to the surface of the covering earth at an application rate of 600 to 800 l of water/ha (converted) in a variety of dosages.
(§3) After the treatment, the pots were placed in the greenhouse and kept under good growth conditions for the weeds and the crop plants. Visual scoring of the plant damage or emergence damage was carried out after the test plants had emerged after a test period of 2 to 4 weeks, in comparison with untreated controls.

[3] = test system: Corn (Aventura); assay: Post-emergence herbicidal effect and safener effect, corn; conditions: herbicide 100 g a.i./ha, no safener
Procedure: as §1

[4] = test system: Wheat (Triso); assay: Post-emergence herbicidal effect and safener effect, wheat; conditions: herbicide 50 g a.i./ha, no safener
Procedure: as §1

[5] = test system: Wheat (Triso); assay: Pre-emergence herbicidal effect and safener effect, wheat; conditions: herbicide 100 g a.i./ha, no safener, visual scoring vs untreated controls
Source text: as §2, §3

`COC(=O)c1nc(-c2ccc(Cl)nc2)cc(N)c1Cl` [I-128, Methyl 4-amino-3-chloro-6-(6-chloro-3-pyridinyl)pyridine-2-carboxylate] was tested. Which “% Effect (without safener)” value ([1]; herbicide 25 g a.i./ha) did it give?
The value was 30%.

What about the “% Effect (without safener)” value ([1]; herbicide 50 g a.i./ha) of the same molecule?
The value was 20%.

And the “% Effect (without safener)” value ([2]; herbicide 25 g a.i./ha)?
Its value is 50%.

What about the “% Effect (without safener)” value ([2]; herbicide 50 g a.i./ha) of the same molecule?
The value was 65%.

What about the “% Effect (without safener)” value [3] of the same molecule?
Its value is 40%.

And the “% Effect (without safener)” value [4]?
Its value is 40%.

And the “% Effect (without safener)” value [5]?
The value was 50%.
